ChEMBL document CHEMBL3885861, “Open TG-GATES”
*1 amine or outer side, *2 acyl side, *3 side chain or, on linkers, in order; H or OH if unused. Where a SMILES comes first, the peptide text is derived from it. Bridges are numbered along the chain shown (N, C = ends). [ ]: non-standard residue; d: D form. Trp(2-yl) = O=C([C@H](Cc1c([*:3])[nH]c2ccccc12)N[*:1])[*:2]; Leu(4R-OH,5-OH) = C[C@](O)(CO)C[C@H](N)C(=O)O; cisHyp = O=C(O)[C@@H]1C[C@H](O)CN1

Species: Rattus norvegicus
Test: Open TG-GATES - Regimen: Daily Repeat
Assay type: toxicity, organism-based, Sprague-Dawley
Design: regimen Daily Repeat, gender Male, age 6 weeks
Conditions: in vivo, ip, route intraperitoneal injection; for APTT / Bas / Eos / Fbg / Hb / Ht / Lym / MCH / MCHC / MCV / Mono / Neu / PT / Plat / RBC / Ret / WBC: tissue Blood; for KIDNEY_L / KIDNEY_R / KIDNEY_TOTAL: tissue Kidney; for LIVER: tissue Liver; for A/G / ALP / ALT / AST / BUN / CRE / Ca / Cl / DBIL / GLC / IP / K / LDH / Na / PL / RALB / TBIL / TC / TG / TP / gamma-GTP: tissue Plasma
[1] = 0 mg/kg, 72 h, dose level Control, time 3 day
[2] = 0 mg/kg, […], dose level Control, time 7 day
[3] = 1 mg/kg, 72 h, dose level High, time 3 day
[4] = 1 mg/kg, […], dose level High, time 7 day

Question: For `C[C@@H]1NC(=O)[C@H](C[C@@](C)(O)CO)NC(=O)[C@@H]2Cc3c([nH]c4ccccc34)SC[C@H](NC(=O)[C@@H]([C@H](C)O)NC1=O)C(=O)N1C[C@@H](O)C[C@H]1C(=O)N[C@@H](C)C(=O)N2` [PHALLOIDIN] (cyclo(A[dT]C[cisHyp]A[Trp(2-yl)][Leu(4R-OH,5-OH)]); thioether 3-6), which TERMINAL_BW [1] is on record?
Answer: 224.8 g

Question: And the APTT [1]?
Answer: 23.1 s

Question: What about the Bas [1] of the same compound?
Answer: 0%

Question: What about the Eos [1] of the same compound?
Answer: 1%

Question: And the Fbg [1]?
Answer: 328 mg/dL

Question: And the Hb [1]?
Answer: 13 g/dL

Question: And the Ht [1]?
Answer: 40.4%

Question: What about the Lym [1] of the same compound?
Answer: 83%

Question: What about the MCH [1] of the same compound?
Answer: 20.5 pg

Question: What about the MCHC [1] of the same compound?
Answer: 32.2%

Question: What about the MCV [1] of the same compound?
Answer: 63.5 fL

Question: What about the Mono [1] of the same compound?
Answer: 2.8%

Question: What about the Neu [1] of the same compound?
Answer: 12.6%

Question: What about the PT [1] of the same compound?
Answer: 16.3 s

Question: And the Plat [1]?
Answer: 118.5 x10_4/uL

Question: And the RBC [1]?
Answer: 636.6 x10_4/ul

Question: And the Ret [1]?
Answer: 6.8%

Question: And the WBC [1]?
Answer: 113.9 x10_2/uL

Question: And the KIDNEY_L [1]?
Answer: 1 g

Question: What about the KIDNEY_R [1] of the same compound?
Answer: 1 g

Question: And the KIDNEY_TOTAL [1]?
Answer: 1.9 g

Question: What about the LIVER [1] of the same compound?
Answer: 10.4 g

Question: And the A/G [1]?
Answer: 1.3

Question: And the ALP [1]?
Answer: 1525.8 IU/L

Question: And the ALT [1]?
Answer: 42 IU/L

Question: And the AST [1]?
Answer: 66.8 IU/L

Question: What about the BUN [1] of the same compound?
Answer: 17.4 mg/dL

Question: And the CRE [1]?
Answer: 0.2 mg/dL

Question: What about the Ca [1] of the same compound?
Answer: 10.8 mg/dL

Question: What about the Cl [1] of the same compound?
Answer: 105.4 meq/L

Question: What about the DBIL [1] of the same compound?
Answer: 0 mg/dL

Question: And the GLC [1]?
Answer: 201.4 mg/dL

Question: And the IP [1]?
Answer: 8.4 mg/dL

Question: And the K [1]?
Answer: 4.7 meq/L

Question: And the LDH [1]?
Answer: 177.6 IU/L

Question: And the Na [1]?
Answer: 140.8 meq/L

Question: And the PL [1]?
Answer: 139.6 mg/dL

Question: What about the RALB [1] of the same compound?
Answer: 3.1 g/dL

Question: And the TBIL [1]?
Answer: 0 mg/dL

Question: What about the TC [1] of the same compound?
Answer: 78 mg/dL

Question: What about the TG [1] of the same compound?
Answer: 116.4 mg/dL

Question: What about the TP [1] of the same compound?
Answer: 5.5 g/dL

Question: What about the gamma-GTP [1] of the same compound?
Answer: 1.6 IU/L

Question: And the TERMINAL_BW [2]?
Answer: 261.3 g

Question: And the APTT [2]?
Answer: 23.5 s

Question: What about the Bas [2] of the same compound?
Answer: 0%

Question: And the Eos [2]?
Answer: 1%

Question: What about the Fbg [2] of the same compound?
Answer: 322.2 mg/dL

Question: And the Hb [2]?
Answer: 12.9 g/dL

Question: What about the Ht [2] of the same compound?
Answer: 39.5%

Question: And the Lym [2]?
Answer: 80%

Question: What about the MCH [2] of the same compound?
Answer: 20.4 pg

Question: And the MCHC [2]?
Answer: 32.6%

Question: What about the MCV [2] of the same compound?
Answer: 62.5 fL

Question: What about the Mono [2] of the same compound?
Answer: 1.8%

Question: What about the Neu [2] of the same compound?
Answer: 16.2%

Question: And the PT [2]?
Answer: 15.6 s

Question: And the Plat [2]?
Answer: 135.8 x10_4/uL

Question: And the RBC [2]?
Answer: 632.2 x10_4/ul

Question: And the Ret [2]?
Answer: 6.8%

Question: And the WBC [2]?
Answer: 114.9 x10_2/uL

Question: What about the KIDNEY_L [2] of the same compound?
Answer: 1.1 g

Question: What about the KIDNEY_R [2] of the same compound?
Answer: 1.2 g

Question: What about the KIDNEY_TOTAL [2] of the same compound?
Answer: 2.3 g

Question: What about the LIVER [2] of the same compound?
Answer: 11.8 g

Question: What about the A/G [2] of the same compound?
Answer: 1.2

Question: What about the ALP [2] of the same compound?
Answer: 1235.4 IU/L

Question: And the ALT [2]?
Answer: 36.6 IU/L

Question: What about the AST [2] of the same compound?
Answer: 63.4 IU/L

Question: What about the BUN [2] of the same compound?
Answer: 18 mg/dL

Question: What about the CRE [2] of the same compound?
Answer: 0.2 mg/dL

Question: And the Ca [2]?
Answer: 10.4 mg/dL

Question: What about the Cl [2] of the same compound?
Answer: 105.8 meq/L

Question: What about the DBIL [2] of the same compound?
Answer: 0 mg/dL

Question: And the GLC [2]?
Answer: 189.8 mg/dL

Question: And the IP [2]?
Answer: 8.2 mg/dL

Question: And the K [2]?
Answer: 4.4 meq/L

Question: And the LDH [2]?
Answer: 160.4 IU/L

Question: What about the Na [2] of the same compound?
Answer: 142.6 meq/L

Question: What about the PL [2] of the same compound?
Answer: 130.8 mg/dL

Question: And the RALB [2]?
Answer: 2.9 g/dL

Question: And the TBIL [2]?
Answer: 0.008 mg/dL

Question: What about the TC [2] of the same compound?
Answer: 75 mg/dL

Question: What about the TG [2] of the same compound?
Answer: 88.6 mg/dL

Question: And the TP [2]?
Answer: 5.4 g/dL

Question: And the gamma-GTP [2]?
Answer: 2.8 IU/L

Question: And the TERMINAL_BW [3]?
Answer: 218.4 g

Question: What about the APTT [3] of the same compound?
Answer: 19.4 s

Question: And the Bas [3]?
Answer: 0%

Question: What about the Eos [3] of the same compound?
Answer: 1.2%

Question: And the Fbg [3]?
Answer: 270.8 mg/dL

Question: And the Hb [3]?
Answer: 13.5 g/dL

Question: And the Ht [3]?
Answer: 42.3%

Question: What about the Lym [3] of the same compound?
Answer: 78.2%

Question: And the MCH [3]?
Answer: 20.3 pg

Question: What about the MCHC [3] of the same compound?
Answer: 32%

Question: What about the MCV [3] of the same compound?
Answer: 63.4 fL

Question: And the Mono [3]?
Answer: 3.2%

Question: And the Neu [3]?
Answer: 16.8%

Question: What about the PT [3] of the same compound?
Answer: 15.5 s

Question: What about the Plat [3] of the same compound?
Answer: 119.3 x10_4/uL

Question: And the RBC [3]?
Answer: 667.2 x10_4/ul

Question: And the Ret [3]?
Answer: 6.7%

Question: And the WBC [3]?
Answer: 88.5 x10_2/uL

Question: What about the KIDNEY_L [3] of the same compound?
Answer: 1.1 g

Question: And the KIDNEY_R [3]?
Answer: 1.1 g

Question: And the KIDNEY_TOTAL [3]?
Answer: 2.1 g

Question: And the LIVER [3]?
Answer: 12 g

Question: And the A/G [3]?
Answer: 1.1

Question: What about the ALP [3] of the same compound?
Answer: 2057 IU/L

Question: And the ALT [3]?
Answer: 49 IU/L

Question: And the AST [3]?
Answer: 85.6 IU/L

Question: What about the BUN [3] of the same compound?
Answer: 13.2 mg/dL

Question: What about the CRE [3] of the same compound?
Answer: 0.1 mg/dL

Question: And the Ca [3]?
Answer: 11.1 mg/dL

Question: And the Cl [3]?
Answer: 105.4 meq/L

Question: What about the DBIL [3] of the same compound?
Answer: 0.066 mg/dL

Question: And the GLC [3]?
Answer: 168.8 mg/dL

Question: What about the IP [3] of the same compound?
Answer: 8.3 mg/dL

Question: What about the K [3] of the same compound?
Answer: 5.2 meq/L

Question: And the LDH [3]?
Answer: 169.2 IU/L

Question: And the Na [3]?
Answer: 140.4 meq/L

Question: And the PL [3]?
Answer: 153.6 mg/dL

Question: What about the RALB [3] of the same compound?
Answer: 3 g/dL

Question: What about the TBIL [3] of the same compound?
Answer: 0.084 mg/dL

Question: What about the TC [3] of the same compound?
Answer: 107.4 mg/dL

Question: What about the TG [3] of the same compound?
Answer: 24.2 mg/dL

Question: And the TP [3]?
Answer: 5.8 g/dL

Question: And the gamma-GTP [3]?
Answer: 1.6 IU/L

Question: What about the TERMINAL_BW [4] of the same compound?
Answer: 244 g

Question: What about the APTT [4] of the same compound?
Answer: 17.6 s

Question: And the Bas [4]?
Answer: 0%

Question: What about the Eos [4] of the same compound?
Answer: 1.2%

Question: And the Fbg [4]?
Answer: 254.4 mg/dL

Question: And the Hb [4]?
Answer: 13.7 g/dL

Question: And the Ht [4]?
Answer: 41.8%

Question: And the Lym [4]?
Answer: 79.6%

Question: And the MCH [4]?
Answer: 19.6 pg

Question: And the MCHC [4]?
Answer: 32.9%

Question: And the MCV [4]?
Answer: 59.6 fL

Question: And the Mono [4]?
Answer: 3%

Question: What about the Neu [4] of the same compound?
Answer: 15.8%

Question: And the PT [4]?
Answer: 14.8 s

Question: And the Plat [4]?
Answer: 150.8 x10_4/uL

Question: And the RBC [4]?
Answer: 702.8 x10_4/ul

Question: What about the Ret [4] of the same compound?
Answer: 4.1%

Question: What about the WBC [4] of the same compound?
Answer: 147.5 x10_2/uL

Question: And the KIDNEY_L [4]?
Answer: 1.1 g

Question: And the KIDNEY_R [4]?
Answer: 1.1 g

Question: What about the KIDNEY_TOTAL [4] of the same compound?
Answer: 2.2 g

Question: What about the LIVER [4] of the same compound?
Answer: 13.9 g

Question: What about the A/G [4] of the same compound?
Answer: 0.8

Question: What about the ALP [4] of the same compound?
Answer: 2253.4 IU/L

Question: And the ALT [4]?
Answer: 86.2 IU/L

Question: What about the AST [4] of the same compound?
Answer: 202.2 IU/L

Question: And the BUN [4]?
Answer: 15 mg/dL

Question: What about the CRE [4] of the same compound?
Answer: 0.1 mg/dL

Question: And the Ca [4]?
Answer: 10.7 mg/dL

Question: What about the Cl [4] of the same compound?
Answer: 104.6 meq/L

Question: And the DBIL [4]?
Answer: 0.3 mg/dL

Question: And the GLC [4]?
Answer: 177.8 mg/dL

Question: And the IP [4]?
Answer: 7.3 mg/dL

Question: What about the K [4] of the same compound?
Answer: 4.8 meq/L

Question: What about the LDH [4] of the same compound?
Answer: 258.2 IU/L

Question: What about the Na [4] of the same compound?
Answer: 141 meq/L

Question: And the PL [4]?
Answer: 168 mg/dL

Question: What about the RALB [4] of the same compound?
Answer: 2.6 g/dL

Question: What about the TBIL [4] of the same compound?
Answer: 0.4 mg/dL

Question: What about the TC [4] of the same compound?
Answer: 115.6 mg/dL

Question: What about the TG [4] of the same compound?
Answer: 28.6 mg/dL

Question: What about the TP [4] of the same compound?
Answer: 5.8 g/dL

Question: What about the gamma-GTP [4] of the same compound?
Answer: 3.2 IU/L
